The target in the first test is T1, TAAR1 (Mus musculus, UniProt Q923Y8).
T1 construct: expressed in transfected cells; host or cells: HEK293 (ATCC # CRL-1573), stably transfected with pIRESneo2 expression plasmid; membranes prepared
T1 sequence (Q923Y8 whole entry): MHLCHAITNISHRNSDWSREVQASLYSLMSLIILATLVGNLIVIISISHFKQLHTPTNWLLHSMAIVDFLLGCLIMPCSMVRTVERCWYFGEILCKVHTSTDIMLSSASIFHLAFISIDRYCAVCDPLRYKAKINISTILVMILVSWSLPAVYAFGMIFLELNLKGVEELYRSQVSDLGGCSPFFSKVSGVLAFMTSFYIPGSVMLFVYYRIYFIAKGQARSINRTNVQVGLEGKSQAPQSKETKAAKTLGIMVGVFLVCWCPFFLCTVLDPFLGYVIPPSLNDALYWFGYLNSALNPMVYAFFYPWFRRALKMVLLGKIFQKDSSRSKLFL
In words: TAAR1 radioligand binding assay on membranes of stably transfected HEK293 cells.
Conditions: not given
Here is the method: The ability of the compounds of the present invention to bind to TAAR 1 was investigated in accordance with the test given hereinafter.
The Expand High Fidelity PCR System (Roche Diagnostics) was used with 1.5 mM Mg^2+ and purified PCR products were cloned into pCR2.1-TOPO cloning vector (Invitrogen) following the instructions of the manufacturer. PCR products were subcloned into the pIRESneo2 vector (BD Clontech, Palo Alto, Calif.), and expression vectors were sequence verified before introduction in cell lines.
For the generation of stably transfected cell lines HEK293 cells were transfected with the pIRESneo2 expression plasmids containing the TAAR coding sequences (described above) with Lipofectamine 2000 (Invitrogen) according to the instructions of the manufacturer, and 24 hours post transfection the culture medium was supplemented with 1 mg/ml G418 (Sigma, Buchs, Switzerland). After a culture period of about 10 days, clones were isolated, expanded and tested for responsiveness to trace amines (all compounds purchased from Sigma) with the cAMP Biotrak Enzyme immunoassay (EIA) System (Amersham) following the non-acetylation EIA procedure provided by the manufacturer.
Cells at confluence were rinsed with ice-cold phosphate buffered saline without Ca^2+ and Mg^2+ containing 10 mM EDTA and pelleted by centrifugation at 1000 rpm for 5 min at 4° C. The pellet was then washed twice with ice-cold phosphate buffered saline and cell pellet was frozen immediately by immersion in liquid nitrogen and stored until use at −80° C. The cell pellet was then suspended in 20 ml HEPES-NaOH (20 mM), pH 7.4 containing 10 mM EDTA, and homogenized with a Polytron (PT 3000, Kinematica) at 10,000 rpm for 10 seconds. The homogenate was centrifuged at 48,000×g for 30 minutes at 4° C. and the pellet resuspended in 20 ml HEPES-NaOH (20 mM), pH 7.4 containing 0.1 mM EDTA (buffer A), and homogenized with a Polytron at 10,000 rpm for 10 seconds. The homogenate was then centrifuged at 48,000×g for 30 minutes at 4° C. and the pellet resuspended in 20 ml buffer A, and homogenized with a Polytron at 10,000 rpm for 10 seconds. Protein concentration was determined by the method of Pierce (Rockford, Ill.). The homogenate was then centrifuged at 48,000×g for 10 minutes at 4° C., resuspended in HEPES-NaOH (20 mM), pH 7.0 including MgCl2 (10 mM) and CaCl2 ([…]) (buffer B) at 200 μg protein per ml and homogenized with a Polytron at 10,000 rpm for 10 seconds.
Binding assay was performed at 4° C. in a final volume of 1 ml, and with an incubation time of 30 minutes. […] Non-specific binding was defined as the amount of [^3H]-rac-2-(1,2,3,4-tetrahydro-1-naphthyl)-2-imidazoline bound in the presence of the appropriate unlabelled ligand (10 μM). Competing ligands were tested in a wide range of concentrations (10 pM-30 μM). […] Each experiment was performed in duplicate. All incubations were terminated by rapid filtration through UniFilter-96 plates (Packard Instrument Company) and glass filter GF/C, pre-soaked for at least 2 h in polyethylenimine 0.3%, and using a Filtermate 96 Cell Harvester (Packard Instrument Company). The tubes and filters were then washed 3 times with 1 ml aliquots of cold buffer B. Filters were not dried and soaked in Ultima gold (45 μl/well, Packard Instrument Company) and bound radioactivity was counted by a TopCount Microplate Scintillation Counter (Packard Instrument Company).
`Cc1cccc2c1CCN2Cc1ncc[nH]1` [Example 33, 1-(1H-Imidazol-2-ylmethyl)-4-methyl-2,3-dihydro-1H-indole] showed a Ki of 0.125 µM.
The compound `COc1cccc2c1N(Cc1ncc[nH]1)CC2` [Example 20, 1-(1H-Imidazol-2-ylmethyl)-7-methoxy-2,3-dihydro-1H-indole] displayed a Ki of 0.118 µM.
The same measure, in the same setting: as for `Cc1cccc2c1N(Cc1ncc[nH]1)CC2` [Example 32, 1-(1H-Imidazol-2-ylmethyl)-7-methyl-2,3-dihydro-1H-indole], the figure is 0.173 µM.
The same measure, in the same setting: then `c1ccc(Oc2cccc3c2CCCN3Cc2ncc[nH]2)cc1` [Example 42, 1-(1H-Imidazol-2-ylmethyl)-5-phenoxy-1,2,3,4-tetrahydro-quinoline], with 0.0046 µM.
Regarding `COc1cccc2c1CCN2Cc1ncc[nH]1` [Example 23, 1-(1H-Imidazol-2-ylmethyl)-4-methoxy-2,3-dihydro-1H-indole], the Ki turned out to be 0.115 µM.
Same read-out and setting: as for `c1ccc2c(c1)CCN2Cc1ncc[nH]1` [Example 1, 1-(1H-Imidazol-2-ylmethyl)-2,3-dihydro-1H-indole], the figure is 0.0289 µM; as for `CCc1cccc2c1N(Cc1ncc[nH]1)CC2` [Example 15, 7-Ethyl-1-(1H-imidazol-2-ylmethyl)-2,3-dihydro-1H-indole], 0.0435 µM.
The same measure, in the same setting: as for `Clc1ccc2c(c1)N(Cc1ncc[nH]1)CC2` [Example 16, 6-Chloro-1-(1H-imidazol-2-ylmethyl)-2,3-dihydro-1H-indole], the figure is 0.035 µM.
Same read-out and setting: as for `Brc1ccc2c(c1)CCN2Cc1ncc[nH]1` [Example 4, 5-Bromo-1-(1H-imidazol-2-ylmethyl)-2,3-dihydro-1H-indole], the figure is 0.055 µM; as for `Clc1cccc2c1CCN2Cc1ncc[nH]1` [Example 17, 4-Chloro-1-(1H-imidazol-2-ylmethyl)-2,3-dihydro-1H-indole], 0.0362 µM.
As for `C[C@@H]1c2ccccc2N(Cc2ncc[nH]2)[C@@H]1C` (racemic) [Example 14, (2RS,3RS)-1-(1H-Imidazol-2-ylmethyl)-2,3-dimethyl-2,3-dihydro-1H-indole], the Ki turned out to be 0.196 µM.

Staying with this test, now noted: mouse TAAR1; radioligand [3H]-rac-2-(1,2,3,4-tetrahydro-1-naphthyl)-2-imidazoline at 60 nM; 4° C., 30 minutes; read-out: Ki (μM) mouse.
`c1ccc(COc2cccc3c2CCCN3Cc2ncc[nH]2)cc1` [Example 38, 5-Benzyloxy-1-(1H-imidazol-2-ylmethyl)-1,2,3,4-tetrahydro-quinoline]: the Ki worked out at 0.0513 µM.
The same measure, in the same setting: then `Cc1ccc2c(c1)N(Cc1ncc[nH]1)CC2` [Example 26, 1-(1H-Imidazol-2-ylmethyl)-6-methyl-2,3-dihydro-1H-indole], with 0.129 µM; and `Clc1cccc2c1N(Cc1ncc[nH]1)CC2` [Example 24, 7-Chloro-1-(1H-imidazol-2-ylmethyl)-2,3-dihydro-1H-indole], with 0.0557 µM; and `Brc1ccc2c(c1)CCCN2Cc1ncc[nH]1` [Example 25, 6-Bromo-1-(H-imidazol-2-ylmethyl)-1,2,3,4-tetrahydro-quinoline], with 0.0951 µM.

Still in this test, the particulars now being: radioligand binding to TAAR1 membranes; species not stated; read-out: calculated Kd value of the radioligand.
With `c1ccc2c(c1)CCCC2C1=NCCN1` (racemic) [[^3H]-rac-2-(1,2,3,4-tetrahydro-1-naphthyl)-2-imidazoline, reference compound], the Kd is 0.06 µM.

These data come from patent publication US7834044B2, “Substituted-2-imidazoles” (Hoffman-LaRoche Inc., priority 2006, dated 2010).
